{
  "source": "patent US9371335B2",
  "about": "“Spirothienopyran-piperidine derivatives as ORL-1 receptor antagonists for their use in the treatment of alcohol dependence and abuse” (Eli Lilly and Company, priority 2011, dated 2016)",
  "test_system": "extracellular dopamine (DA) in the rat nucleus accumbens",
  "assay": "Ethanol-stimulated increases in extracellular dopamine levels in the nucleus accumbens (microdialysis)",
  "format": "in vivo, Sprague-Dawley rats",
  "source_text": "Ethanol-Stimulated Increases in Extracellular Dopamine Levels in the Nucleus Accumbens:\nMale Sprague-Dawley rats with a body weight of 260-300 g from Taconic Farms (Germantown, N.Y.) are implanted with a guide cannula (Bioanalytical Systems Inc, West Lafayette, Ind.) in the nucleus accumbens by the vendor 5-7 days before the experiment. Stereotaxic coordinates for the nucleus accumbens cannula are: A (anterior to bregma), 1.7 mm; L (lateral from the midsagittal suture, right side), 1.0 mm; and V (ventral from the dura surface), −6.0 mm (Paxinos and Watson, 1986). A concentric type probe (BR-2) from Bioanalytical Systems Inc. (West Lafayette, Ind.) is flushed with water and carefully inserted through the cannula about 16 hours before the experiment so that 2 mm of the membrane tip extends below the end of the guide cannula. The rat is then placed in a plastic test bowl to acclimate overnight. Based on methods modified from Melendez et al. (Melendez R I, Rodd-Henricks Z A, McBride W J and Murphy J M (2003), Alcohol stimulates the release of dopamine in the ventral pallidum but not in the globus pallidus: a dual-probe microdialysis study. Neuropsychopharmacology 28:939-946), the rat is connected to a fraction collection system for freely moving animals on the morning of the experiment (Raturn, BioAnalytical Systems Inc, West Lafayette, Ind.). The input tube of the dialysis probe is connected to a syringe pump (BeeHive and BabyBee, Bioanalytical Systems Inc, West Lafayette, Ind.) which delivers an artificial cerebrospinal fluid (150 mM NaCl, 3 mM KCl, 1.7 mM CaCl2 and 0.9 mM MgCl2 ([…])) to the probe at a final collection rate of 1.5 μL/min. The output tubes from the rats are attached to a refrigerated fraction collector (Bioanalytical Systems Inc, West Lafayette, Ind.). After a period of about an hour at an initial perfusion rate of 5.0 μL/min, the flow rate is decreased to 2.0 μL/min for equilibration of the probe and establishment of stable baseline levels for 1 hour, then collection of 20 minute fractions is started. Four baseline samples are collected before injection of any drugs.\nTest compound is administered orally at 30 mg/kg (2 ml/kg dose volume, dissolved in a vehicle consisting of 20% Captisol® in 25 mM phosphate buffer at pH=3). The compound is administered either alone (10 min into the 4th sample; 0 min time point) or in combination with ethanol (10 min into the 1st sample; −60 min time point). Ethanol is administered intraperitoneally (ip) at a dose of 1.1 g/kg in a 15% (v/v) solution in 0.9% saline in a volume of 2.9 ml per rat. Ethanol is administered 10 min into the 4th sample (0 min time point). Dialysate samples are transferred to an Alcott 718 Autosampler/Injector with the sample cooling tray set to 5° C. (Alcott Inc., Norcross, Ga.). […]",
  "key": {"[1]": {"conditions": "compound 30 mg/kg oral + EtOH 1.1 g/kg ip"}},
  "data": [
    {"smiles": "Cc1nn(-c2ncccc2CO)cc1CN1CCC2(CC1)OCC(F)(F)c1cc(Cl)sc12", "note": "[Compound 1, [2-[4-[(2-chloro-4,4-difluoro-spiro[5H-thieno[2,3-c]pyran-7,4′-piperidine]-1′-yl)methyl]-3-methyl-pyrazol-1-yl]-3-pyridyl]methanol]", "values": [
      {"measurement": "Mean DA level (% of baseline) during 120 min period post-EtOH injection", "setting": "[1]", "result": "102.78 % of baseline"},
      {"measurement": "Reduction of DA response relative to Vehicle", "setting": "[1]", "result": 88.16, "unit": "%"},
      {"measurement": "Mean DA level (% of baseline) during 120 min period post-EtOH injection", "setting": "compound 30 mg/kg oral + Vehicle (no ethanol)", "result": "98.53 % of baseline"},
      {"measurement": "ethanol-stimulated increase in extracellular DA concentration in the nucleus accumbens", "setting": "result in words", "result": "prevent the increase in extracellular DA concentrations in the nucleus accumbens"}
    ]}
  ]
}
